Patent US7674613B2, “Live bacterium preparation containing lactic acid bacterium as active ingredient and food containing lactic acid bacterium” (Frente International Co., Ltd., priority 2002, dated 2010)

Legend:
[1] = tested on: Streptococcus mutans MT 8148 strain; assay: Test Example 4: number of viable S. mutans with oligosaccharides and sugar alcohols, with or without L. salivarius TI 2711; assay type: cell-based; details: 5% addition, aerobic 37° C. 24 hours
Experimental: (§1) 5% each of xylitol, erythritol and sorbitol as sugar alcohols, and fructo-oligosaccharide and kestose as oligosaccharides were each added to a liquid medium consisting of GAM bouillon (Nissui) as a base medium and containing 0.7% glucose and 3% sucrose, and each medium was inoculated with 1×10^7 CFU/ml of the Streptococcus mutans MT 8148 strain. Then, aerobic culture was performed at 37° C. for 24 hours.
(§2) On the other hand, 1×10^7 CFU/ml of the Streptococcus mutans MT 8148 strain was inoculated to the aforementioned medium containing 5% of each sugar alcohol or oligosaccharide, and 1×10^7 CFU/ml of the Lactobacillus salivarius TI 2711 strain was further inoculated to the medium. Then, aerobic culture was similarly performed at 37° C. for 24 hours. After completion of the culture, the cell numbers of Streptococcus mutans MT 8148 strain and amounts of insoluble glucan were determined (according to the methods described in Test Example 1) for the both types of culture.

[2] = tested on: Streptococcus mutans MT 8148 strain; assay: Test Example 4: insoluble glucan production by S. mutans with oligosaccharides and sugar alcohols, with or without L. salivarius TI 2711; assay type: cell-based
Experimental: as §1, §2

[3] = With inoculation of L. salivarius TI 2711 1×10^7 CFU/ml
[4] = Without inoculation of L. salivarius, control base medium 4.0 × 10^5

| SMILES | Number of viable cells of S. mutans (CFU/ml) [1, 3] | Number of viable cells of S. mutans (CFU/ml) [1, 4] | inhibition of the production of insoluble glucan ([2]; erythritol alone, 5% addition) | inhibition of the production of insoluble glucan ([2]; mixed culture inoculated with Lactobacillus salivarius TI 2711 strain, amount without inoculation taken as 100%) |
| --- | --- | --- | --- | --- |
| OC[C@@H](O)[C@H](O)[C@@H](O)CO [Xylitol, xylitol] | 5.0 × 10^5 CFU/ml | 4.0 × 10^5 CFU/ml | – | – |
| OC[C@H]1O[C@@](CO)(OC[C@@]2(O[C@H]3O[C@H](CO)[C@@H](O)[C@H](O)[C@H]3O)O[C@H](CO)[C@@H](O)[C@@H]2O)[C@@H](O)[C@@H]1O [Kestose, kestose] | 2.0 × 10^5 CFU/ml | 5.0 × 10^5 CFU/ml | – | – |
| OC[C@@H](O)[C@@H](O)CO [Erythritol, erythritol] | 1.0 × 10^4 CFU/ml | 1.0 × 10^5 CFU/ml | about 60% | 90% |
| OC[C@@H](O)[C@@H](O)[C@H](O)[C@@H](O)CO [Sorbitol, sorbitol] | 3.0 × 10^5 CFU/ml | 4.0 × 10^5 CFU/ml | – | – |
